Reference: patent US10183010B2, “2-oxo-1,2-dihydrobenzo[cd]indole compound and use thereof” (Guangzhou Institutes of Biomedicine and Health, Chinese …, priority 2015, dated 2019)

Key:
BRD4(1) protein [1] = target: T1, BRD4(1) protein (Homo sapiens, UniProt O60885); assay: TSA assay: thermodynamic stability of BRD4(1); type: binding; conditions: SYPRO Orange, 30° C. to 80° C.
T1 construct: BRD4(1) protein, 500 nM; inferred from the use of nickel acceptor beads
Method in brief: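 Thermal shift of BRD4(1) protein (100 μM stock) with compound (400 μM stock) in MOPS 50 mM/NaCl 150 mM/10% glycerol, pH 7.5, SYPRO Orange 1:1000, pre-incubated on ice 30 min, DMSO <2%. Melting ramp 30–80 °C at 0.5 °C/min with fluorescence read every 0.5 °C; ΔTm reported.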

BRD4(1) protein [2] = target: T1, BRD4(1) protein; assay: AlphaScreen assay: disruption of the interaction of BRD4(1) and biotinylated acetylated peptide; type: binding; conditions: BRD4(1) protein with H4KAc4-biotin peptide, 20° C.
Method in brief: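 BRD4(1) at 500 nM was incubated with biotinylated tetra-acetylated H4 peptide (50 nM) in MOPS/CHAPS/NaF/BSA buffer, pH 7.4, with streptavidin donor and nickel acceptor beads (50 μg/mL each). Incubation ran 1 h at 20 °C in the dark before AlphaScreen signal read-out.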

| Molecule | TSA ΔTm (BRD4(1) protein [1]) [°C] | IC50 (BRD4(1) protein [2]) [µM] |
| --- | --- | --- |
| CCN1C(=O)c2cccc3c(S(=O)(=O)NCCCN4CCN(C)CC4)ccc1c23 [Example 101, 1-ethyl-N-(3-(4-methylpiperazin-1-yl)propyl)-2-oxo-1,2-dihydrobenzo[cd]indole-6-sulfonamide] | 5 | 4.17 |
| CCN1C(=O)c2cccc3c(S(=O)(=O)NCCN4CCCCC4)ccc1c23 [Example 102, 1-ethyl-2-oxo-N-(2-(piperidin-1-yl)ethyl)-1,2-dihydrobenzo[cd]indole-6-sulfonamide] | 2 | > 20 |
| CCOC(CCCNS(=O)(=O)c1ccc2c3c(cccc13)C(=O)N2CC)OCC [Example 103, N-(4,4-diethoxybutyl)-1-ethyl-2-oxo-1,2-dihydrobenzo[cd]indole-6-sulfonamide] | 3 | > 20 |
| CCOC(=O)CCNS(=O)(=O)c1ccc2c3c(cccc13)C(=O)N2CC [Example 104, ethyl 3-(1-ethyl-2-oxo-1,2-dihydrobenzo[cd]indole-6-sulfonamido)propanoate] | 3 | > 20 |
| CCN1C(=O)c2cccc3c(S(=O)(=O)NCC4CCCN4CC)ccc1c23 (stereo not drawn) [Example 105, 1-ethyl-N-((1-ethylpyrrolidin-2-yl)methyl)-2-oxo-1,2-dihydrobenzo[cd]indole-6-sulfonamide] | 1.7 | > 20 |
| CCN1C(=O)c2cccc3c(S(=O)(=O)NC4CCN(C)CC4)ccc1c23 [Example 106, 1-ethyl-N-(1-methylpiperidin-4-yl)-2-oxo-1,2-dihydrobenzo[cd]indole-6-sulfonamide] | 2 | > 20 |
| CCN1C(=O)c2cccc3c(S(=O)(=O)NC4CCCCCC4)ccc1c23 [Example 107, N-cycloheptyl-1-ethyl-2-oxo-1,2-dihydrobenzo[cd]indole-6-sulfonamide] | 7 | 0.45 |
| CCN1C(=O)c2cccc3c(S(=O)(=O)NC4CCOCC4)ccc1c23 [Example 108, 1-ethyl-2-oxo-N-(tetrahydro-2H-pyran-4-yl)-1,2-dihydrobenzo[cd]indole-6-sulfonamide] | 7 | 1.21 |
| CCN1C(=O)c2cccc3c(S(=O)(=O)NCCN4CCN(C(=O)OC(C)(C)C)CC4)ccc1c23 [Example 109, tert-butyl 4-(2-(1-ethyl-2-oxo-1,2-dihydrobenzo[cd]indole-6-sulfonamido)ethyl)piperazine-1-carboxylate] | 1 | 8.27 |
| CN1C(=O)c2cccc3c(S(=O)(=O)NC4CCCCC4)ccc1c23 [Example 110, N-cyclohexyl-1-methyl-2-oxo-1,2-dihydrobenzo[cd]indole-6-sulfonamide] | 1 | > 20 |
| CCCCNS(=O)(=O)c1ccc2c3c(cccc13)C(=O)N2C [Example 111, N-butyl-1-methyl-2-oxo-1,2-dihydrobenzo[cd]indole-6-sulfonamide] | 5 | 15.5 |
| CCCN1C(=O)c2cccc3c(S(=O)(=O)NC4CCCCC4)ccc1c23 [Example 112, N-cyclohexyl-2-oxo-1-propyl-1,2-dihydrobenzo[cd]indole-6-sulfonamide] | 4 | 5.21 |
| CCCNS(=O)(=O)c1ccc2c3c(cccc13)C(=O)N2CCC [Example 113, 2-oxo-N,1-dipropyl-1,2-dihydrobenzo[cd]indole-6-sulfonamide] | 3 | > 20 |
| CCCCNS(=O)(=O)c1ccc2c3c(cccc13)C(=O)N2CCC [Example 114, N-butyl-2-oxo-1-propyl-1,2-dihydrobenzo[cd]indole-6-sulfonamide] | 3 | > 20 |
| CCCCNS(=O)(=O)c1ccc2c3c(cccc13)C(=O)N2 [Example 115, N-butyl-2-oxo-1,2-dihydrobenzo[cd]indole-6-sulfonamide] | 1 | > 20 |
| CCCCNS(=O)(=O)c1ccc2c3c(cccc13)C(=O)N2CC(C)C [Example 116, N-butyl-1-isobutyl-2-oxo-1,2-dihydrobenzo[cd]indole-6-sulfonamide] | 0 | > 20 |
| CC(C)CN1C(=O)c2cccc3c(S(=O)(=O)NC4CCCCC4)ccc1c23 [Example 117, N-cyclohexyl-1-isobutyl-2-oxo-1,2-dihydrobenzo[cd]indole-6-sulfonamide] | 0 | > 20 |
| O=C1Nc2ccc(S(=O)(=O)NC3CCCCC3)c3cccc1c23 [Example 118, N-cyclohexyl-2-oxo-1,2-dihydrobenzo[cd]indole-6-sulfonamide] | 2 | > 20 |
| CCN1C(=O)c2cccc3c(S(=O)(=O)Nc4cccc(C(C)=O)c4)ccc1c23 [Example 119, N-(3-acetylphenyl)-1-ethyl-2-oxo-1,2-dihydrobenzo[cd]indole-6-sulfonamide] | 3 | 5.5 |
| CCN1C(=O)c2cccc3c(S(=O)(=O)Nc4ccc(Cl)cc4)ccc1c23 [Example 120, N-(4-chlorophenyl)-1-ethyl-2-oxo-1,2-dihydrobenzo[cd]indole-6-sulfonamide] | 3.3 | 3.38 |
| CCN1C(=O)c2cccc3c(S(=O)(=O)Nc4ccccc4)ccc1c23 [Example 121, 1-ethyl-2-oxo-N-phenyl-1,2-dihydrobenzo[cd]indole-6-sulfonamide] | 7.5 | 1.09 |
| CCN1C(=O)c2cccc3c(S(=O)(=O)Nc4ccccc4Cl)ccc1c23 [Example 122, N-(2-chlorophenyl)-1-ethyl-2-oxo-1,2-dihydrobenzo[cd]indole-6-sulfonamide] | 5.1 | 1.89 |
| CCN1C(=O)c2cccc3c(S(=O)(=O)Nc4cccc(Cl)c4)ccc1c23 [Example 123, N-(3-chlorophenyl)-1-ethyl-2-oxo-1,2-dihydrobenzo[cd]indole-6-sulfonamide] | 3.3 | 3.52 |
| (+)-JQ1 [reference compound] | 11.5 | 0.18 |
